From patent US20180161276A1, “TEMPERATURE-RESPONSIVE COMPOSITION, METHOD FOR FABRICATING, AND USE THEREOF” (NATIONAL TSING HUA UNIVERSITY, priority 2016, published 2018)

Target: hemoglobin (Hb) (Homo sapiens, UniProt P68871+P69905)
Assay: Anti-degradation ability of produced nitric oxide in the presence of hemoglobin
Type: physicochemical
Details: in the presence of hemoglobin compared to absence of hemoglobin
Description: As mentioned above, the half-life of nitric oxide is quite short due to the reaction between nitric oxide and erythrocyte in plasma or ceruloplasmin. Please refer to FIG. 6A and FIG. 6B.
However, the half-life of nitric oxide, which is produced by using the temperature-responsive composition of the 1st embodiment in the present disclosure in the presence of hemoglobin, only has a degradation of 40% as shown in FIG. 6B. That is, it proves that applying the temperature-responsive composition of the present disclosure can extend the half-life of the produced nitric oxide.

Sequence of hemoglobin (Hb) (P69905 2-142 limits assumed): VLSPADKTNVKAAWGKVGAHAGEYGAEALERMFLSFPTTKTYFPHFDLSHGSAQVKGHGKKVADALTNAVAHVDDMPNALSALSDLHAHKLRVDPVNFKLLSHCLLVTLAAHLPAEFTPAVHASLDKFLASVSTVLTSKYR
Sequence of hemoglobin (Hb) (P68871 2-147 limits assumed): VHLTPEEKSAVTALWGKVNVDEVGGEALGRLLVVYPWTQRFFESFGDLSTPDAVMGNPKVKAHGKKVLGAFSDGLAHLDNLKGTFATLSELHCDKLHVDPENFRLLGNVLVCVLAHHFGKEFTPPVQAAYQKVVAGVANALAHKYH

## NCCN(CCN)/[N+]([O-])=N/O [diethylenetriaine-NONOate]
  degradation of the half-life of the produced nitric oxide: 85%
